Test results reported in patent US20230398153A1, “A METHOD FOR EFFICIENT MICROGLIA REPLACEMENT” (The Board of Trustees of the Leland Stanford Junior …, priority 2020, published 2023).

Experiments:
[1] = tested on: brain myeloid cells (CD45+CD11b+); assay: HSCT followed by PLX5622 treatment: donor (GFP+) myeloid chimerism in the brain by flow cytometry; format: in vivo, mouse
Text: Microglia depletion after HSCT results in near complete replacement of microglia with bone marrow-derived cells throughout the entire brain. We next tested whether CSF1R inhibition after HSCT enhanced microglia replacement. We therefore performed conventional HSCT with GFP-labeled fresh bone marrow cells. After 28 days, we treated the experimental group with PLX5622 for 10 days and the control group received no drug (FIG. 2A). After another 10 days (7 weeks post transplant) we analyzed the brains and consistently found over 90% of all brain myeloid cells to be GFP^+ by flow cytometry (FIG. 2B, C). […] The transplanted CDMCs had homogeneously populated the entire brain (FIG. 2E). Importantly, this high chimerism was stable and CDMCs remained incorporated for at least 6 months after transplantation (FIG. 2C, 9E).
PLX5622 was provided by Plexxikon Inc. and incorporated to AIN-76A standard chow by Research Diets Inc. at 1200 mg/kg.
Unless otherwise noted, we used female mice at age of 8-12 weeks for both recipients and donors. WT mice were pre-treated with PLX5622 diet between day-21 and day −1 (21 days) and/or busulfan between day-6 and −2 day (5 days). For busulfan pre-treatment, mice received five intraperitoneal (IP) injections of busulfan (sigma, B1 170000) at 25 mg/kg body weight per day. On day 0, bone marrow cells (BMCs) were isolated from tibias and femurs of UBC-GFP mice. Isolated BMCs were resuspended in 1×red blood cell lysis buffer (e-bioscience, 00-4300-54) and incubated for 20 min at room temperature. BMCs were passed through 70 μm cell strainer, washed by applying 10 ml of ice cold PBS and then resuspended in fresh PBS. BMCs (5×10^6) in 200 ul PBS were injected into the retro-orbital sinus of the pre-conditioned recipients. On day 28, the recipient mice were treated with PLX5622 or control diet for 10 days. For tamoxifen injection, tamoxifen (sigma T5648) in corn oil (sigma, C8267) was provided by IP injection to the recipient mice at 200 mg/kg at the indicated time points after bone marrow transplantation.
Microglia cells were isolated from adult mouse brains as described (Shibuya et al., 2014). Anesthetized mice (100 mg/kg of ketamin and 10 mg/kg of xylazine, i.p.) were perfused through the left ventricle with ice-cold PBS without Ca^2+ and Mg^2+. Brains were removed and cut into two pieces along the midline. One hemisphere was immediately transferred to 4% paraformaldehyde for fixation. The other hemi-sphere was minced with a surgical knife, and then transferred to ice-cold HBSS without Ca^2+ and Mg^2+. Minced hemi-brains were centrifuged at 300×g for 2 min at room temperature and then enzymatically digested at 37° C. for 35 min by using Neural Tissue Dissociation Kit (Miltenyi Biotec, 130-092-628) according to the manufacturer's protocol. The cell suspension was passed through a 70 µm cell strainer and washed by applying 10 ml of HBSS with Ca^2+ and Mg^2+ to the strainer. The cell suspension was centrifuged at 300×g for 10 min at room temperature, re-suspended in 30% Percoll (GE Healthcare Lifesciences, 17089102), and then centrifuged at 700×g for 10 min at 4° C. The supernatant containing the myelin was removed and the pellet was washed with 10 ml of HBSS with Ca^2+ and Mg^2+. The resulting pellet was resuspended in FACS buffer and subjected to antibody staining for flow cytometry. Microglia/CDMCs were identified using anti-CD45 and anti-CD11b antibodies.
The following FACS antibodies were used in this study. CD11b (clone M1/70, BioLegend), CD45 (Clone 30-F11, BD biosciences), F4/80 (clone BM8, biolegend), CCR2 (clone SA203G11, biolegend), gp49A/B (clone H1.1), CD115 (CSF1R) (clone AFS98, biolegend), CD117 (c-kit) (clone 2B8, BD biosciences), sca-1 (clone D7, biolegend), cd127 (IL7Ra)(clone SB/199, biolegend), CD16/CD32 (FcR Ill/II) (clone 93, biolegend), CX3CR1 (clone K0124E1, biolegend), cd135 (Flk-2,)(clone A2F10) CD34 (clone561, biolegend), and Ly6C (clone RB6-8C5). […]

[2] = tested on: peripheral blood cell populations; assay: Effect of PLX5622 after HSCT on peripheral blood cell populations; format: in vivo; details: PLX5622 10 days after HSCT, D38
Method: FIG. 9. […] (A) Flow cytometry gating for analysis of donor chimerism in PB myeloid cells. (B) Myeloid chimerism in PB was analyzed by flow cytometry at the indicated time point (Horizontal bars represent median values. n=5-6/time point, ns: not significant, Student's t-test). (C) The effect of PLX5622 on PB myeloid cells was analyzed by flow cytometry. Flow cytometry gating for analysis of the indicated cell populations on D38. (D) Quantification of number of the indicated cell populations by flow cytometry (Mean±SEM, n=6/group, ns: not significant, Student's t-test). (E) Representative images of GFP+ and Iba-1+ cells, and DAPI in the cortex of recipient mice at the indicated time points. Scale bars:[…].
The following FACS antibodies were used in this study. […]
Approximately 50 ul of peripheral blood per mouse was collected from the facial vein into a 1.5 ml tubes containing 20ul of 0.5M EDTA. […] The resulting cells were analyzed by flow cytometry.

## COc1ncc(F)cc1CNc1ccc(Cc2c[nH]c3ncc(C)cc23)c(F)n1 [PLX5622]
[1]; PLX5622 between days 14 and 24 after HSCT, flow cytometry on D34
  engraftment of CDMCs into the brain: comparably robust and efficient engraftment
[1]; PLX5622 pre-treatment before HSCT (busulfan+PLX5622 group), 14 days post IV injection
  fraction of GFP+ cells among brain myeloid cells: only a marginal increase
[1]; PLX5622 treatment following HSCT, cortex, d83
  expression of microglia-specific marker TMEM119 in CDMCs: induced expression of the microglia-specific marker TMEM119 in CDMCs
[1]; after transplantation, PLX5622 10 days from D28
  duration CDMCs remained incorporated (stable high chimerism): at least 6 months
[1]; busulfan HSCT, PLX5622 10 days from D28, analysed after another 10 days (7 weeks post transplant)
  brain myeloid cells GFP+ by flow cytometry: over 90%
[1]; flow cytometry during treatment after HSCT
  CDMCs (GFP+) and microglia (GFP-) numbers during PLX5622 treatment: both cell populations were diminished to similar degrees
[2]
  composition of peripheral blood cell populations: largely unaffected
